In patent publication US20230210831A1, “CHRONIC KIDNEY DISEASE TREATMENT OR PREVENTION METHOD” (Japan Tobacco Inc., priority 2019, published 2023):
Values joined by “and” are separate entries in the source; they are usually repeats but may differ in a detail not shown here. Equal values may be shown once.

What was measured:
Type in all cases: cell-based
[1] = test system: Salmonella typhimurium TA1537; assay: Ames test (reverse mutation test), TA1537; conditions: for Number of revertant colonies TA1537: S9 Mix -
Method: (§1) The solvent used herein was dimethyl sulfoxide (DMSO, 100 µL/plate).
(§2) The mixtures were preincubated at 37° C. for 20 minutes while shaking. […] Two plates per treatment were used.

[2] = test system: Salmonella typhimurium TA98; assay: Ames test (reverse mutation test), TA98; conditions: for potential to induce reverse mutations: TA98 with S9 mix; for Number of revertant colonies TA98: S9 Mix -
Method: as §1, §2

[3] = test system: Salmonella typhimurium TA1535; assay: Ames test (reverse mutation test), TA1535
Method: as §1, §2

Escherichia coli WP2uvrA = assay: Ames test (reverse mutation test), WP2uvrA; conditions: for Number of revertant colonies: WP2uvrA; for Number of revertant colonies WP2uvrA: S9 Mix -
Method: as §1, §2

[4] = test system: Salmonella typhimurium TA100; assay: Ames test (reverse mutation test), TA100; conditions: for Number of revertant colonies TA100: S9 Mix -
Method: as §1, §2

COc1ccc2nc3cc(Cl)ccc3c(NCCCNCCCl)c2c1 [ICR-191]
Number of revertant colonies TA1537 ([1]; dose 1.0 µg/plate, positive control): 1448 and 1435 and 1413 and 1096 and 1397
Number of revertant colonies ([1]; TA1537, -S9 mix, 1.0 µg/plate (positive control)): 1170 and 1131

CC(C)(C)Oc1cccc(-c2cc(N)nn2-c2ccccc2)c1 [Metabolite C]
Number of revertant colonies ([1]; TA1537, +S9 mix, 2.3 µg/plate): 6
Number of revertant colonies ([1]; TA1537, +S9 mix, 6.9 µg/plate): 7
Number of revertant colonies ([1]; TA1537, +S9 mix, 21 µg/plate): 7
Number of revertant colonies ([1]; TA1537, +S9 mix, 62 µg/plate): 9
Number of revertant colonies ([1]; TA1537, +S9 mix, 185 µg/plate): 9
Number of revertant colonies ([1]; TA1537, +S9 mix, 556 µg/plate): 4
Number of revertant colonies ([1]; TA1537, +S9 mix, 1667 µg/plate): 4
Number of revertant colonies ([1]; TA1537, +S9 mix, 5000 µg/plate): 5
Number of revertant colonies ([1]; TA1537, -S9 mix, 2.3 µg/plate): 3
Number of revertant colonies ([1]; TA1537, -S9 mix, 6.9 µg/plate): 1
Number of revertant colonies ([1]; TA1537, -S9 mix, 21 µg/plate): 3
Number of revertant colonies ([1]; TA1537, -S9 mix, 62 µg/plate): 3
Number of revertant colonies ([1]; TA1537, -S9 mix, 185 µg/plate): 2
Number of revertant colonies ([1]; TA1537, -S9 mix, 556 µg/plate): 0
Number of revertant colonies ([1]; TA1537, -S9 mix, 1667 µg/plate): 0
Number of revertant colonies ([1]; TA1537, -S9 mix, 5000 µg/plate): 0
Number of revertant colonies ([2]; TA98, +S9 mix, 2.34 µg/plate): 38
Number of revertant colonies ([2]; TA98, +S9 mix, 4.69 µg/plate): 36
Number of revertant colonies ([2]; TA98, +S9 mix, 9.38 µg/plate): 73
Number of revertant colonies ([2]; TA98, +S9 mix, 18.8 µg/plate): 107
Number of revertant colonies ([2]; TA98, +S9 mix, 37.5 µg/plate): 133
Number of revertant colonies ([2]; TA98, +S9 mix, 75 µg/plate): 153
Number of revertant colonies ([2]; TA98, +S9 mix, 150 µg/plate): 133
Number of revertant colonies ([2]; TA98, +S9 mix, 300 µg/plate): 138
Number of revertant colonies ([2]; TA98, -S9 mix, 2.3 µg/plate): 14
Number of revertant colonies ([2]; TA98, -S9 mix, 6.9 µg/plate): 15
Number of revertant colonies ([2]; TA98, -S9 mix, 21 µg/plate): 17
Number of revertant colonies ([2]; TA98, -S9 mix, 62 µg/plate): 8
Number of revertant colonies ([2]; TA98, -S9 mix, 185 µg/plate): 8
Number of revertant colonies ([2]; TA98, -S9 mix, 556 µg/plate): 8
Number of revertant colonies ([2]; TA98, -S9 mix, 1667 µg/plate): 8
Number of revertant colonies ([2]; TA98, -S9 mix, 5000 µg/plate): 0
potential to induce reverse mutations [2]: showed potential to induce reverse mutations
Number of revertant colonies ([3]; TA1535, +S9 mix, 2.3 µg/plate): 8
Number of revertant colonies ([3]; TA1535, +S9 mix, 6.9 µg/plate): 8
Number of revertant colonies ([3]; TA1535, +S9 mix, 21 µg/plate): 5
Number of revertant colonies ([3]; TA1535, +S9 mix, 62 µg/plate): 4
Number of revertant colonies ([3]; TA1535, +S9 mix, 185 µg/plate): 5
Number of revertant colonies ([3]; TA1535, +S9 mix, 556 µg/plate): 4
Number of revertant colonies ([3]; TA1535, +S9 mix, 1667 µg/plate): 5
Number of revertant colonies ([3]; TA1535, +S9 mix, 5000 µg/plate): 4
Number of revertant colonies ([3]; TA1535, -S9 mix, 21 µg/plate): 6
Number of revertant colonies ([3]; TA1535, -S9 mix, 556 µg/plate): 0
Number of revertant colonies (Escherichia coli WP2uvrA; +S9 mix, 2.3 µg/plate): 28
Number of revertant colonies (Escherichia coli WP2uvrA; +S9 mix, 6.9 µg/plate): 23
Number of revertant colonies (Escherichia coli WP2uvrA; +S9 mix, 21 µg/plate): 21
Number of revertant colonies (Escherichia coli WP2uvrA; +S9 mix, 62 µg/plate): 26
Number of revertant colonies (Escherichia coli WP2uvrA; +S9 mix, 185 µg/plate): 17
Number of revertant colonies (Escherichia coli WP2uvrA; +S9 mix, 556 µg/plate): 8
Number of revertant colonies (Escherichia coli WP2uvrA; +S9 mix, 1667 µg/plate): 12
Number of revertant colonies (Escherichia coli WP2uvrA; +S9 mix, 5000 µg/plate): 16
Number of revertant colonies (Escherichia coli WP2uvrA; -S9 mix, 2.3 µg/plate): 15
Number of revertant colonies (Escherichia coli WP2uvrA; -S9 mix, 6.9 µg/plate): 16
Number of revertant colonies (Escherichia coli WP2uvrA; -S9 mix, 21 µg/plate): 17
Number of revertant colonies (Escherichia coli WP2uvrA; -S9 mix, 62 µg/plate): 13
Number of revertant colonies (Escherichia coli WP2uvrA; -S9 mix, 185 µg/plate): 13
Number of revertant colonies (Escherichia coli WP2uvrA; -S9 mix, 556 µg/plate): 13
Number of revertant colonies (Escherichia coli WP2uvrA; -S9 mix, 1667 µg/plate): 10
Number of revertant colonies (Escherichia coli WP2uvrA; -S9 mix, 5000 µg/plate): 11
Number of revertant colonies ([4]; TA100, +S9 mix, 2.34 µg/plate): 526
Number of revertant colonies ([4]; TA100, +S9 mix, 4.69 µg/plate): 778
Number of revertant colonies ([4]; TA100, +S9 mix, 9.38 µg/plate): 1210
Number of revertant colonies ([4]; TA100, +S9 mix, 18.8 µg/plate): 1745
Number of revertant colonies ([4]; TA100, +S9 mix, 37.5 µg/plate): 2049
Number of revertant colonies ([4]; TA100, +S9 mix, 75 µg/plate): 2147
Number of revertant colonies ([4]; TA100, +S9 mix, 150 µg/plate): 2043
Number of revertant colonies ([4]; TA100, +S9 mix, 300 µg/plate): 1412
Number of revertant colonies ([4]; TA100, -S9 mix, 2.3 µg/plate): 87
Number of revertant colonies ([4]; TA100, -S9 mix, 6.9 µg/plate): 99
Number of revertant colonies ([4]; TA100, -S9 mix, 21 µg/plate): 48
Number of revertant colonies ([4]; TA100, -S9 mix, 62 µg/plate): 41
Number of revertant colonies ([4]; TA100, -S9 mix, 185 µg/plate): 45
Number of revertant colonies ([4]; TA100, -S9 mix, 556 µg/plate): 33
Number of revertant colonies ([4]; TA100, -S9 mix, 1667 µg/plate): 25
Number of revertant colonies ([4]; TA100, -S9 mix, 5000 µg/plate): 35
potential to induce reverse mutations ([4]; TA100 with S9 mix): showed potential to induce reverse mutations

CC(C)(OCc1cc(F)cc(-c2cc(N)nn2-c2ccc(F)cc2)c1)C(F)(F)F [Metabolite D]
Number of revertant colonies TA1537 ([1]; dose 2.3 µg/plate): 11
Number of revertant colonies TA1537 ([1]; dose 6.9 µg/plate): 13
Number of revertant colonies TA1537 ([1]; dose 21 µg/plate): 11
Number of revertant colonies TA1537 ([1]; dose 62 µg/plate): 7
Number of revertant colonies TA1537 ([1]; dose 185 µg/plate): 6
Number of revertant colonies TA1537 ([1]; dose 556 µg/plate): 7
Number of revertant colonies TA1537 ([1]; dose 1667 µg/plate): 6
Number of revertant colonies TA1537 ([1]; dose 5000 µg/plate): 8
Number of revertant colonies ([1]; TA1537, +S9 mix, 2.3 µg/plate): 14
Number of revertant colonies ([1]; TA1537, +S9 mix, 6.9 µg/plate): 20
Number of revertant colonies ([1]; TA1537, +S9 mix, 21 µg/plate): 13
Number of revertant colonies ([1]; TA1537, +S9 mix, 62 µg/plate): 18
Number of revertant colonies ([1]; TA1537, +S9 mix, 185 µg/plate): 15
Number of revertant colonies ([1]; TA1537, +S9 mix, 556 µg/plate): 15
Number of revertant colonies ([1]; TA1537, +S9 mix, 1667 µg/plate): 19
Number of revertant colonies ([1]; TA1537, +S9 mix, 5000 µg/plate): 24
potential to induce reverse mutations ([1]; TA1537 with S9 mix): showed potential to induce reverse mutations
Number of revertant colonies TA98 ([2]; dose 2.3 µg/plate): 27
Number of revertant colonies TA98 ([2]; dose 6.9 µg/plate): 22
Number of revertant colonies TA98 ([2]; dose 21 µg/plate): 23
Number of revertant colonies TA98 ([2]; dose 62 µg/plate): 25
Number of revertant colonies TA98 ([2]; dose 185 µg/plate): 32
Number of revertant colonies TA98 ([2]; dose 556 µg/plate): 21
Number of revertant colonies TA98 ([2]; dose 1667 µg/plate): 23
Number of revertant colonies TA98 ([2]; dose 5000 µg/plate): 21
Number of revertant colonies ([2]; TA98, +S9 mix, 2.3 µg/plate): 39
Number of revertant colonies ([2]; TA98, +S9 mix, 6.9 µg/plate): 42
Number of revertant colonies ([2]; TA98, +S9 mix, 21 µg/plate): 52
Number of revertant colonies ([2]; TA98, +S9 mix, 62 µg/plate): 47
Number of revertant colonies ([2]; TA98, +S9 mix, 185 µg/plate): 49
Number of revertant colonies ([2]; TA98, +S9 mix, 556 µg/plate): 51
Number of revertant colonies ([2]; TA98, +S9 mix, 1667 µg/plate): 57
Number of revertant colonies ([2]; TA98, +S9 mix, 5000 µg/plate): 88
potential to induce reverse mutations [2]: showed potential to induce reverse mutations
Number of revertant colonies TA1535 ([3]; S9 Mix -, dose 1667 µg/plate): 6
Number of revertant colonies ([3]; TA1535, +S9 mix, 1667 µg/plate): 7
Number of revertant colonies WP2uvrA (Escherichia coli WP2uvrA; dose 2.3 µg/plate): 25
Number of revertant colonies WP2uvrA (Escherichia coli WP2uvrA; dose 6.9 µg/plate): 27
Number of revertant colonies WP2uvrA (Escherichia coli WP2uvrA; dose 21 µg/plate): 22
Number of revertant colonies WP2uvrA (Escherichia coli WP2uvrA; dose 62 µg/plate): 21
Number of revertant colonies WP2uvrA (Escherichia coli WP2uvrA; dose 185 µg/plate): 22
Number of revertant colonies WP2uvrA (Escherichia coli WP2uvrA; dose 556 µg/plate): 16
Number of revertant colonies WP2uvrA (Escherichia coli WP2uvrA; dose 1667 µg/plate): 18
Number of revertant colonies WP2uvrA (Escherichia coli WP2uvrA; dose 5000 µg/plate): 20
Number of revertant colonies (Escherichia coli WP2uvrA; +S9 mix, 2.3 µg/plate): 31
Number of revertant colonies (Escherichia coli WP2uvrA; +S9 mix, 6.9 µg/plate): 18
Number of revertant colonies (Escherichia coli WP2uvrA; +S9 mix, 21 µg/plate): 24
Number of revertant colonies (Escherichia coli WP2uvrA; +S9 mix, 62 µg/plate): 18
Number of revertant colonies (Escherichia coli WP2uvrA; +S9 mix, 185 µg/plate): 23
Number of revertant colonies (Escherichia coli WP2uvrA; +S9 mix, 556 µg/plate): 32
Number of revertant colonies (Escherichia coli WP2uvrA; +S9 mix, 1667 µg/plate): 28
Number of revertant colonies (Escherichia coli WP2uvrA; +S9 mix, 5000 µg/plate): 28
Number of revertant colonies TA100 ([4]; dose 2.3 µg/plate): 99
Number of revertant colonies TA100 ([4]; dose 6.9 µg/plate): 98
Number of revertant colonies TA100 ([4]; dose 21 µg/plate): 71
Number of revertant colonies TA100 ([4]; dose 62 µg/plate): 96
Number of revertant colonies TA100 ([4]; dose 185 µg/plate): 85
Number of revertant colonies TA100 ([4]; dose 556 µg/plate): 86
Number of revertant colonies TA100 ([4]; dose 1667 µg/plate): 69
Number of revertant colonies TA100 ([4]; dose 5000 µg/plate): 82
Number of revertant colonies ([4]; TA100, +S9 mix, 2.3 µg/plate): 139
Number of revertant colonies ([4]; TA100, +S9 mix, 6.9 µg/plate): 203
Number of revertant colonies ([4]; TA100, +S9 mix, 21 µg/plate): 237
Number of revertant colonies ([4]; TA100, +S9 mix, 62 µg/plate): 185
Number of revertant colonies ([4]; TA100, +S9 mix, 185 µg/plate): 151
Number of revertant colonies ([4]; TA100, +S9 mix, 556 µg/plate): 119
Number of revertant colonies ([4]; TA100, +S9 mix, 1667 µg/plate): 100
Number of revertant colonies ([4]; TA100, +S9 mix, 5000 µg/plate): 98

[N-]=[N+]=[N-].[Na+] [SA]
Number of revertant colonies ([3]; TA1535, -S9 mix, 0.5 µg/plate (positive control)): 217 and 222
